Drawing on PubChem BioAssay AID1745844 (Carcinogenic Potency Database (CPDB), 2022), this text covers TD50 and carcinogen call for six molecules.

Structures are written as SMILES. Several values for one entry are separate records, joined by “and”; a condition that tells them apart may be missing. Equal values may be shown once. Activity calls are given as the source filed them. The rule behind the calls is not given here.

The subject of the data set is rodent lifetime carcinogenesis bioassay, tumor incidence TD50. Description: chronic cancer bioassays in animals – CPDB, compiled studies (AID 1745844).

One may read the TD50 as the dose at which the toxic effect under study appears in half of the subjects. For `O=C1OC(c2ccc(O)cc2)(c2ccc(O)cc2)c2ccccc21`, the TD50 reads like this: (mouse, strain B6C3F1, females, in feed, site: all sites + ovary, lesion: histiocytic sarcoma + lymphoma malignant, thymic origin + malignant lymphoma + sex-cord stromal tumor, benign, bilateral + sex-c, dosed 105 weeks, study length 105 weeks) 508 mg/kg/day; (mouse, strain B6C3F1, females, in feed, site: all sites, lesion: histiocytic sarcoma, dosed 105 weeks, study length 105 weeks) 4080 mg/kg/day; (mouse, strain B6C3F1, females, in feed, site: all sites, lesion: lymphoma malignant, thymic origin, dosed 105 weeks, study length 105 weeks) 1610 mg/kg/day; (mouse, strain B6C3F1, females, in feed, site: all sites, lesion: malignant lymphoma, dosed 105 weeks, study length 105 weeks) 748 mg/kg/day; (mouse, strain B6C3F1, females, in feed, site: any site (literature study), lesion: several types, types named in the paper, dosed 105 weeks, study length 105 weeks) 1740 mg/kg/day; (mouse, strain B6C3F1, females, in feed, site: lung, lesion: alveolar/bronchiolar adenoma + alveolar/bronchiolar carcinoma, dosed 105 weeks, study length 105 weeks) 9190 mg/kg/day. The TD50 was 1900 mg/kg/day (mouse, strain B6C3F1, females, in feed, site: ovary, lesion: sex-cord stromal tumor, benign, bilateral + sex-cord stromal tumor, benign, dosed 105 weeks, study length 105 weeks); 1150 mg/kg/day (mouse, strain B6C3F1, males, in feed, site: all sites, lesion: histiocytic sarcoma + lymphoma malignant, thymic origin, dosed 104 weeks, study length 104 weeks); 2680 mg/kg/day (mouse, strain B6C3F1, males, in feed, site: all sites, lesion: histiocytic sarcoma, dosed 104 weeks, study length 104 weeks); 2740 mg/kg/day (mouse, strain B6C3F1, males, in feed, site: all sites, lesion: lymphoma malignant, thymic origin, dosed 104 weeks, study length 104 weeks); 32200 mg/kg/day (mouse, strain B6C3F1, males, in feed, site: any site (literature study), lesion: several types, types named in the paper, dosed 104 weeks, study length 104 weeks); 8060 mg/kg/day (mouse, strain B6C3F1, males, in feed, site: lung, lesion: alveolar/bronchiolar adenoma + alveolar/bronchiolar carcinoma, dosed 104 weeks, study length 104 weeks). Further, the TD50 reads like this: (mouse, strain B6C3F1, males, in feed, site: spleen, lesion: hemangiosarcoma, dosed 104 weeks, study length 104 weeks) 1640 mg/kg/day; (mouse, strain BALB/c, males, in feed, site: liver, lesion: hepatoma, dosed 60 weeks, study length 104 weeks) 20800 mg/kg/day (inactive); (rat, strain Fischer 344, females, in feed, site: adrenal medulla, lesion: pheochromocytoma benign, bilateral + pheochromocytoma, benign, dosed 105 weeks, study length 105 weeks) 4160 mg/kg/day; (rat, strain Fischer 344, females, in feed, site: adrenal medulla, lesion: pheochromocytoma benign, bilateral + pheochromocytoma, malignant + pheochromocytoma, benign, dosed 105 weeks, study length 105 weeks) 3530 mg/kg/day; (rat, strain Fischer 344, males, in feed, site: adrenal medulla + kidney, lesion: pheochromocytoma benign, bilateral + pheochromocytoma, benign + tubule adenoma + tubule carcinoma, dosed 104 weeks, study length 104 weeks) 250 mg/kg/day; (rat, strain Fischer 344, males, in feed, site: adrenal medulla, lesion: pheochromocytoma benign, bilateral + pheochromocytoma, benign, dosed 104 weeks, study length 104 weeks) 517 mg/kg/day. Further, the TD50 (rat, strain Fischer 344, males, in feed, site: adrenal medulla, lesion: pheochromocytoma benign, bilateral + pheochromocytoma, malignant + pheochromocytoma malignant, bilateral + pheochromocytoma, b, dosed 104 weeks, study length 104 weeks) is 533 mg/kg/day; the TD50 (rat, strain Fischer 344, males, in feed, site: any site (literature study), lesion: several types, types named in the paper, dosed 104 weeks, study length 104 weeks) amounted to 3540 mg/kg/day; the TD50 (rat, strain Fischer 344, males, in feed, site: kidney, lesion: tubule adenoma + tubule carcinoma, dosed 104 weeks, study length 104 weeks) is 3220 mg/kg/day and 975 mg/kg/day; the TD50 (rat, strain Fischer 344, males, in feed, site: kidney, lesion: tubule adenoma, dosed 104 weeks, study length 104 weeks) was 4050 mg/kg/day and 1040 mg/kg/day; the TD50 (rat, strain Fischer 344, males, in feed, site: liver, lesion: hepatocellular adenoma + hepatoblastoma + hepatocellular carcinoma, dosed 104 weeks, study length 104 weeks) turned out to be 118000 mg/kg/day; the TD50 (rat, strain Fischer 344, males, in feed, site: thyroid gland, lesion: follicular-cell adenoma, bilateral + follicular-cell adenoma, dosed 104 weeks, study length 104 weeks) amounted to 6990 mg/kg/day. The carcinogen call (mouse, strain BALB/c, males, in feed, site: lung, lesion: one or several types, types not named, dosed 60 weeks, study length 104 weeks) is “negative (inactive)”; the carcinogen call (mouse, strain C57BL/6J, males, by gavage, site: liver, lesion: hepatoma, dosed 69 weeks, study length 104 weeks) was “negative (inactive)”; the carcinogen call (mouse, strain C57BL/6J, males, by gavage, site: lung, lesion: one or several types, types not named, dosed 69 weeks, study length 104 weeks) was “negative (inactive)”.
`CC(=O)O[C@]1(C(C)=O)CC[C@H]2[C@@H]3C=C(Cl)C4=CC(=O)CC[C@]4(C)[C@H]3CC[C@@]21C` came in with a TD50 (mouse, strain C3H (MTV+), females, in feed, site: mammary tissue, wider than the gland, lesion: one or several types, types not named, dosed 104 weeks, study length 104 weeks) of 3.77 mg/kg/day.
Turning to `Cc1ccc([N+](=O)[O-])cc1N`, the TD50 was 242 mg/kg/day (mouse, strain B6C3F1, females, in feed, site: all sites + liver, lesion: hemangiosarcoma + hepatocellular carcinoma, dosed 78 weeks, study length 96 weeks); 1860 mg/kg/day (mouse, strain B6C3F1, females, in feed, site: all sites, lesion: hemangiosarcoma, dosed 78 weeks, study length 96 weeks); 989 mg/kg/day (mouse, strain B6C3F1, females, in feed, site: any site (literature study), lesion: several types, types named in the paper, dosed 78 weeks, study length 96 weeks); 288 mg/kg/day (mouse, strain B6C3F1, females, in feed, site: liver, lesion: hepatocellular adenoma + hepatocellular carcinoma + neoplastic nodule, dosed 78 weeks, study length 96 weeks); 288 mg/kg/day (mouse, strain B6C3F1, females, in feed, site: liver, lesion: hepatocellular carcinoma, dosed 78 weeks, study length 96 weeks); 269 mg/kg/day (mouse, strain B6C3F1, males, in feed, site: all sites + liver, lesion: hemangioma + hemangiosarcoma + hepatocellular carcinoma, dosed 78 weeks, study length 95 weeks). For the same molecule, the TD50 (mouse, strain B6C3F1, males, in feed, site: all sites, lesion: hemangioma + hemangiosarcoma, dosed 78 weeks, study length 95 weeks) is 2550 mg/kg/day; the TD50 (mouse, strain B6C3F1, males, in feed, site: any site (literature study), lesion: several types, types named in the paper, dosed 78 weeks, study length 95 weeks) stood at 431 mg/kg/day; the TD50 (mouse, strain B6C3F1, males, in feed, site: liver, lesion: hepatocellular adenoma + hepatocellular carcinoma + neoplastic nodule, dosed 78 weeks, study length 95 weeks) turned out to be 266 mg/kg/day; the TD50 (mouse, strain B6C3F1, males, in feed, site: liver, lesion: hepatocellular carcinoma, dosed 78 weeks, study length 95 weeks) was 266 mg/kg/day; the TD50 (rat, strain Fischer 344, females, in feed, site: liver, lesion: hepatocellular adenoma + hepatocellular carcinoma + neoplastic nodule, dosed 78 weeks, study length 108 weeks) was determined as 43 mg/kg/day; the TD50 (rat, strain Fischer 344, males, in feed, site: any site (literature study), lesion: several types, types named in the paper, dosed 78 weeks, study length 107 weeks) turned out to be 43.7 mg/kg/day. Under “rat, strain Fischer 344, males, in feed, site: liver, lesion: hepatocellular carcinoma, dosed 78 weeks, study length 107 weeks”, the TD50 is 27.7 mg/kg/day (inactive). Moreover, where the note is “rat, strain Fischer 344, females, in feed, site: any site (literature study), lesion: several types, types named in the paper, dosed 78 weeks, study length 108 weeks”, the carcinogen call was “negative (inactive)”.
`C[C@]12CCC(=O)C=C1CC[C@@H]1[C@@H]2[C@@H](O)C[C@@]2(C)[C@H]1CC[C@]2(O)C(=O)CO`: the carcinogen call reads like this: (rat, strain Sprague-Dawley, females, by gavage, site: any site (literature study), lesion: malignant tumor, dosed 110 weeks, study length 110 weeks) “negative (inactive)”; (rat, strain Sprague-Dawley, males, by gavage, site: any site (literature study), lesion: malignant tumor, dosed 104 weeks, study length 104 weeks) “negative (inactive)”.
For `CC(=O)NN`, the TD50 (mouse, strain Swiss, females, by gavage, site: lung, lesion: several types, types named in the paper, dosed 34 weeks, study length 95 weeks) was 18.8 mg/kg/day; the TD50 (mouse, strain Swiss, females, by gavage, site: lung, lesion: several types, types named in the paper, dosed 95 weeks, study length 95 weeks) is 53.8 mg/kg/day; the TD50 (mouse, strain Swiss, males, by gavage, site: lung, lesion: several types, types named in the paper, dosed 34 weeks, study length 95 weeks) is 4.48 mg/kg/day; the TD50 (mouse, strain Swiss, males, by gavage, site: lung, lesion: several types, types named in the paper, dosed 95 weeks, study length 95 weeks) was 35.6 mg/kg/day.
Regarding `CCOC(=O)c1ccc(N)cc1`, the TD50 (rat, strain ACI, both sexes, in feed, site: colorectum, lesion: papilloma, dosed 94 weeks, study length 94 weeks) was 331 mg/kg/day; the TD50 (rat, strain ACI, both sexes, in feed, site: colorectum, lesion: squamous-cell carcinoma, dosed 94 weeks, study length 94 weeks) was 1760 mg/kg/day; the TD50 (rat, strain ACI, both sexes, in feed, site: intestine, lesion: several types, types named in the paper, dosed 94 weeks, study length 94 weeks) was 191 mg/kg/day; the TD50 (rat, strain ACI, females, in feed, site: cecum, lesion: adenoma, dosed 68 weeks, study length 68 weeks) is 1270 mg/kg/day; the TD50 (rat, strain ACI, females, in feed, site: colorectum, lesion: adenocarcinoma, dosed 68 weeks, study length 68 weeks) was 373 mg/kg/day; the TD50 (rat, strain ACI, females, in feed, site: colorectum, lesion: adenoma, dosed 68 weeks, study length 68 weeks) was 977 mg/kg/day. For the same molecule, the TD50 (rat, strain ACI, females, in feed, site: colorectum, lesion: papilloma, dosed 68 weeks, study length 68 weeks) was 219 mg/kg/day; the TD50 (rat, strain ACI, females, in feed, site: colorectum, lesion: squamous-cell carcinoma, dosed 68 weeks, study length 68 weeks) is 1760 mg/kg/day; the TD50 (rat, strain ACI, females, in feed, site: urinary bladder, lesion: one or several types, types not named, dosed 68 weeks, study length 68 weeks) is 2560 mg/kg/day (inactive) and 1640 mg/kg/day (inactive); the TD50 (rat, strain ACI, males, in feed, site: cecum, lesion: adenoma, dosed 68 weeks, study length 68 weeks) was 4250 mg/kg/day (inactive); the TD50 (rat, strain ACI, males, in feed, site: colorectum, lesion: adenocarcinoma, dosed 68 weeks, study length 68 weeks) is 182 mg/kg/day; the TD50 (rat, strain ACI, males, in feed, site: colorectum, lesion: adenoma, dosed 68 weeks, study length 68 weeks) is 1700 mg/kg/day. The TD50 (rat, strain ACI, males, in feed, site: colorectum, lesion: squamous-cell carcinoma, dosed 68 weeks, study length 68 weeks) is 2050 mg/kg/day.
